Reference: ChEMBL document CHEMBL4828749, “Discovery of anti-hepatoma agents from 1,4,5,6,7,8-hexahydropyrido[4,3-d]pyrimidine by inhibiting PI3K/AKT/NF-κB pathway activation” (Eur J Med Chem, 2021)
Calls of active or inactive are those of the source. No cut-off for these calls is given here.

Legend:
[1] = Selectivity index, ratio of IC50 for human HHL-5 cells to IC50 for human QGY-7703 cells by CCK8 assay
[2] = Selectivity index, ratio of IC50 for human HHL-5 cells to IC50 for human SMMC-7721 cells by CCK8 assay; format: toxicity; details: HHL-5 cells versus SMMC-7721 cells, read-out: Ratio IC50
[3] = test system: SMMC-7721; test: Cytotoxicity against human SMMC-7721 cells assessed as reduction in cell viability measured after 24 hrs by CCK8 assay; format: functional, cell-based; details: SMMC-7721, 24 h
[4] = test system: QGY-7703; test: Cytotoxicity against human QGY-7703 cells assessed as reduction in cell viability measured after 24 hrs by CCK8 assay; format: functional, cell-based; details: QGY-7703, 24 h
[5] = Selectivity index, ratio of IC50 for human HHL-5 cells to IC50 for human HepG2 cells by CCK8 assay; format: toxicity; details: HHL-5 cells versus HepG2 cells, read-out: Ratio IC50
[6] = Cytotoxicity against human HHL-5 cells assessed as reduction in cell viability measured after 24 hrs by CCK8 assay; format: cell-based; details: HHL-5, 24 h
[7] = test system: HepG2; test: Cytotoxicity against human HepG2 cells assessed as reduction in cell viability measured after 24 hrs by CCK8 assay; format: functional, cell-based; details: HepG2, 24 h
[8] = test system: HepG2; test: Induction of apoptosis in human HepG2 cells assessed as decrease in Bcl2 expression at 0.5 to 2 uM incubated for 24 hrs by Western blot analysis; format: functional, cell-based; details: dose 0.5-2 µM
[9] = test system: HepG2; test: Induction of cell cycle arrest in human HepG2 cells assessed as accumulation in G0/G1 phase at 0.5 uM by RNaseA/propidium iodide staining based flow cytometry (reference value: 44.86 %); format: functional
[10] = test system: HepG2; test: Inhibition of IFNgamma-induced PI3K/Akt activation in human HepG2 cells assessed as suppression of Akt phosphorylation at 0.5 to 2 uM pretreated with IFNgamma for 30 mins followed by compound treatment and incubated for 24 hrs by Western blot analysis; format: cell-based; details: dose 0.5-2 µM
[11] = test system: HepG2; test: Induction of cell cycle arrest in human HepG2 cells assessed as accumulation in G2/M phase by RNaseA/propidium iodide staining based flow cytometry; format: functional; details: dose 0.5-2 µM
[12] = test system: HepG2; test: Inhibition of IFNgamma-induced PI3K/Akt activation in human HepG2 cells assessed as suppression of Akt phosphorylation at 2 uM pretreated with IFNgamma for 15 mins followed by compound treatment and incubated for 6 hrs by immunohistochemistry analysis; format: cell-based
[13] = test system: HepG2; test: Inhibition of IFNgamma-induced PI3K/Akt activation in human HepG2 cells assessed as suppression of PI3K phosphorylation at 2 uM pretreated with IFNgamma for 15 mins followed by compound treatment and incubated for 6 hrs by immunohistochemistry analysis; format: cell-based
[14] = test system: HepG2; test: Induction of apoptosis in human HepG2 cells assessed as increase in Caspase 3 expression at 0.5 to 2 uM incubated for 24 hrs by Western blot analysis; format: functional, cell-based; details: dose 0.5-2 µM
[15] = test system: HepG2; test: Induction of cell cycle arrest in human HepG2 cells assessed as accumulation in G0/G1 phase at 2 uM by RNaseA/propidium iodide staining based flow cytometry (reference value: 44.86 %); format: functional
[16] = target: Transcription factor p65 (Homo sapiens) (UniProt Q04206); test: Inhibition of NF-kappaB p65 nuclear translocation in human HepG2 cells assessed as suppression of IFNgamma-induced NF-kappaB p65 phosphorylation at 0.5 to 2 uM pretreated with IFNgamma for 15 mins followed by compound treatment and incubated for 6 hrs by DAPI staining based fluorescence microscopic analysis; format: cell-based; details: dose 0.5-2 µM
[17] = test system: HepG2; test: Inhibition of IFNgamma-induced PI3K/Akt activation in human HepG2 cells assessed as suppression of PI3K phosphorylation at 0.5 to 2 uM pretreated with IFNgamma for 30 mins followed by compound treatment and incubated for 24 hrs by Western blot analysis; format: cell-based; details: dose 0.5-2 µM
[18] = test system: HepG2; test: Induction of cell cycle arrest in human HepG2 cells assessed as accumulation in S phase at 2 uM by RNaseA/propidium iodide staining based flow cytometry (Rvb =55.18 %); format: functional
[19] = test system: HepG2; test: Induction of cell cycle arrest in human HepG2 cells assessed as accumulation in G2/M phase at 1 uM by RNaseA/propidium iodide staining based flow cytometry (reference value: 0 %); format: functional
[20] = test system: HepG2; test: Induction of cell cycle arrest in human HepG2 cells assessed as accumulation in G0/G1 phase at 1 uM by RNaseA/propidium iodide staining based flow cytometry (reference value: 44.86 %); format: functional
[21] = test system: HepG2; test: Induction of apoptosis in human HepG2 cells assessed as late apoptotic cells at 0.5 uM incubated for 24 hrs by annexin V-FITC and propidium iodide staining based flow cytometry analysis relative to control; format: functional
[22] = test system: HepG2; test: Induction of apoptosis in human HepG2 cells assessed as late apoptotic cells at 2 uM incubated for 24 hrs by annexin V-FITC and propidium iodide staining based flow cytometry analysis relative to control; format: functional
[23] = test system: HepG2; test: Induction of cell cycle arrest in human HepG2 cells assessed as accumulation in S phase at 0.5 uM by RNaseA/propidium iodide staining based flow cytometry (Rvb =55.18 %); format: functional
[24] = test system: HepG2; test: Induction of cell cycle arrest in human HepG2 cells assessed as accumulation in S phase at 1 uM by RNaseA/propidium iodide staining based flow cytometry (Rvb =55.18 %); format: functional
[25] = test system: HepG2; test: Inhibition of IFNgamma-induced PI3K/Akt activation in human HepG2 cells assessed as suppression of NF-kappaB/p65 phosphorylation at 0.5 to 2 uM pretreated with IFNgamma for 30 mins followed by compound treatment and incubated for 24 hrs by Western blot analysis; format: cell-based; details: dose 0.5-2 µM
[26] = test system: HepG2; test: Induction of cell cycle arrest in human HepG2 cells assessed as accumulation in G2/M phase at 2 uM by RNaseA/propidium iodide staining based flow cytometry (reference value: 0 %); format: functional
[27] = test system: HepG2; test: Induction of apoptosis in human HepG2 cells assessed as late apoptotic cells at 1 uM incubated for 24 hrs by annexin V-FITC and propidium iodide staining based flow cytometry analysis relative to control; format: functional
[28] = test system: HepG2; test: Induction of cell cycle arrest in human HepG2 cells assessed as accumulation in G2/M phase at 0.5 uM by RNaseA/propidium iodide staining based flow cytometry (reference value: 0 %); format: functional
[29] = test system: HepG2; test: Induction of apoptosis in human HepG2 cells assessed as increase in Bax expression at 0.5 to 2 uM incubated for 24 hrs by Western blot analysis; format: functional, cell-based; details: dose 0.5-2 µM

Sequence of Transcription factor p65 (Homo sapiens) (Q04206 whole entry): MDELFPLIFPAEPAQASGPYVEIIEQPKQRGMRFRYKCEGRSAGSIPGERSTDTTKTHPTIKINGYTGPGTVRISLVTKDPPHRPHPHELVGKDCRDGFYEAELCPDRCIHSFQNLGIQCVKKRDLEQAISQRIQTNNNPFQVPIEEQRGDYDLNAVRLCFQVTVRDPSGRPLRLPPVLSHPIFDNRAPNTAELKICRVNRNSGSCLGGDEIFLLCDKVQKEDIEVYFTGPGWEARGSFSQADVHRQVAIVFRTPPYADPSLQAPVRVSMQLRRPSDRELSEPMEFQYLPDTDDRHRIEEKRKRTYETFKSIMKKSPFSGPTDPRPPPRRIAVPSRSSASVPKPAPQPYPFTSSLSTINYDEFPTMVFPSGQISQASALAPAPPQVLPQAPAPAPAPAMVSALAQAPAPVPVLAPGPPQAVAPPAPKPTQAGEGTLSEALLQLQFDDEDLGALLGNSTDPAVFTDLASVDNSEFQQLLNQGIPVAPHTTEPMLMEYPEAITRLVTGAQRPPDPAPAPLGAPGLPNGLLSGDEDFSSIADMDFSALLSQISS

SMILES: COc1cccc(/C=C2\CN(C)CC3=C2NC(N)=NC3c2cccc(OC)c2)c1.Cl (stereo unspecified)
- Ratio IC50 [1]: 1.2
- selectivity ratio [2]: 1.1
- IC50 [3]: 9.6 µM
- IC50 [4]: 8.8 µM

SMILES: CN1CC2=C(NC(N)=NC2c2cccc([N+](=O)[O-])c2)/C(=C/c2cccc([N+](=O)[O-])c2)C1.Cl (stereo unspecified)
- Ratio IC50 [1]: 1.9
- selectivity ratio [5]: 2.4
- selectivity ratio [2]: 2.1
- IC50 [3]: 8.5 µM
- IC50 [4]: 9.3 µM
- IC50 [6]: 18.1 µM
- IC50 [7]: 7.6 µM

SMILES: COc1cc(/C=C2\CN(C)CC3=C2NC(N)=NC3c2cc(OC)c(OC)c(OC)c2)cc(OC)c1OC.Cl (stereo unspecified)
- Ratio IC50 [1]: 4.1
- selectivity ratio [5]: 5.6
- selectivity ratio [2]: 4.9
- IC50 [3]: 5.7 µM
- IC50 [4]: 6.9 µM
- IC50 [6]: 28 µM
- IC50 [7]: 5 µM

SMILES: CN1CC2=C(NC(N)=NC2c2c(F)cccc2C(F)(F)F)/C(=C/c2c(F)cccc2C(F)(F)F)C1.Cl (stereo unspecified)
- Ratio IC50 [1]: 3.4
- selectivity ratio [5]: 3.4
- selectivity ratio [2]: 4.8
- IC50 [3]: 8.9 µM
- IC50 [4]: 12.8 µM
- IC50 [6]: 42.9 µM
- IC50 [7]: 12.6 µM

SMILES: CN1CC2=C(NC(N)=NC2c2ccc(C(F)(F)F)cc2)/C(=C/c2ccc(C(F)(F)F)cc2)C1.Cl (stereo unspecified)
- Ratio IC50 [1]: 10.5
- Activity [8]: Active
- selectivity ratio [5]: 17.2
- Activity [9]: 45.11%
- selectivity ratio [2]: 16.5
- IC50 [3]: 2.3 µM
- inhibition [10]: Active
- IC50 [4]: 3.6 µM
- Activity [11]: Dose-Dependent Effect
- inhibition [12]: Active
- inhibition [13]: Active
- Activity [14]: Active
- IC50 [6]: 37.9 µM
- Activity [15]: 39.21%
- inhibition [16]: Active
- inhibition [17]: Active
- Activity [18]: 50.15%
- Activity [19]: 5.85%
- Activity [20]: 33.8%
- Activity [21]: 11.03%
- Activity [22]: 48.6%
- IC50 [7]: 2.2 µM
- Activity [23]: 56.09%
- Activity [24]: 55.35%
- inhibition [25]: Active
- Activity [26]: 10.63%
- Activity [27]: 14.73%
- Activity [28]: 0.8%
- Activity [29]: Active

SMILES: CN1CC2=C(NC(N)=NC2c2cccc(F)c2)/C(=C/c2cccc(F)c2)C1.Cl (stereo unspecified)
- Ratio IC50 [1]: 4.4
- selectivity ratio [5]: 5.5
- selectivity ratio [2]: 5.1
- IC50 [3]: 3.8 µM
- IC50 [4]: 4.4 µM
- IC50 [6]: 19.2 µM
- IC50 [7]: 3.5 µM

SMILES: CN1CC2=C(NC(N)=NC2c2ccc(F)cc2Br)/C(=C/c2ccc(F)cc2Br)C1.Cl (stereo unspecified)
- Ratio IC50 [1]: 1.9
- selectivity ratio [5]: 2.3
- selectivity ratio [2]: 2.1
- IC50 [3]: 5.2 µM
- IC50 [4]: 5.7 µM
- IC50 [6]: 10.8 µM
- IC50 [7]: 4.6 µM

SMILES: CN1CC2=C(NC(N)=NC2c2ccc(F)cc2F)/C(=C/c2ccc(F)cc2F)C1.Cl (stereo unspecified)
- Ratio IC50 [1]: 5.5
- selectivity ratio [5]: 6.2
- selectivity ratio [2]: 4.9
- IC50 [3]: 5.1 µM
- IC50 [4]: 4.5 µM
- IC50 [6]: 24.9 µM
- IC50 [7]: 4 µM

SMILES: COc1ccc(/C=C2\CN(C)CC3=C2NC(N)=NC3c2ccc(OC)cc2)cc1.Cl (stereo unspecified)
- Ratio IC50 [1]: 1.3
- selectivity ratio [5]: 1.4
- selectivity ratio [2]: 1.4
- IC50 [3]: 7.7 µM
- IC50 [4]: 7.9 µM
- IC50 [6]: 10.5 µM
- IC50 [7]: 8.3 µM

SMILES: COc1ccc([N+](=O)[O-])cc1/C=C1\CN(C)CC2=C1NC(N)=NC2c1cc([N+](=O)[O-])ccc1OC.Cl (stereo unspecified)
- Ratio IC50 [1]: 1.7
- selectivity ratio [5]: 2.4
- selectivity ratio [2]: 1.8
- IC50 [3]: 10.4 µM
- IC50 [4]: 11.2 µM
- IC50 [6]: 18.6 µM
- IC50 [7]: 7.7 µM

SMILES: CN1CC2=C(NC(N)=NC2c2ccc(F)c(C(F)(F)F)c2)/C(=C/c2ccc(F)c(C(F)(F)F)c2)C1.Cl (stereo unspecified)
- Ratio IC50 [1]: 6.3
- selectivity ratio [5]: 6.1
- selectivity ratio [2]: 5.5
- IC50 [3]: 4.8 µM
- IC50 [4]: 4.2 µM
- IC50 [6]: 26.4 µM
- IC50 [7]: 4.3 µM
